This is an account of results in patent US9463192B2, “Trk-inhibiting compound” (ONO PHARMACEUTICAL CO., LTD., priority 2013, dated 2016).

For one assay, the target named is human TrkA (Homo sapiens (Human), UniProt P04629). Kind of assay: Measurement of TrkA kinase-inhibiting activity using human TrkA-expressing cells. The assay is classed as cell-based. The conditions noted are these: CHO-K1 cells expressing human TrkA and NFAT-bla; NGF 50 ng/ml; TR-FRET reporter. The method, then:
TrkA kinase-inhibiting activity in cell systems was measured using CHO-K1 cells exressing human TrkA and NFAT-bla (CellSenser™ TrkA-NFAT-bla CHO-K1 cells, Invitrogen).
On the day before the assay, CellSenser™ TrkA-NFAT-bla CHO-K1 cells were suspended in an assay medium (Opti-MEM1 Reduced Serum Medium (Invitrogen) containing 0.5% dialysed fetal bovine serum (Invitrogen), 0.1 mM nonessential amino acids (Invitrogen), 1 mM sodium pyruvate (Invitrogen) and antibiotics (100 U/mL penicillin and 100 µg/mL streptomycin (Invitrogen))) and plated at a density of 2.4×10^4 cells/40 μL/well in a 96-well clear bottom plate (Corning, Catalogue No.: 3882). In some wells were added only the assay medium at 40 μL/well (Cell-free). On the day of the assay, 10 mM of the present compound (DMSO solution) was distributed in a 96-well plate (Costar, Catalogue No.: 3363) and serially diluted with DMSO with the geometrical ratio of 3. The serial dilutions were diluted with the assay medium to 100-fold to prepare a solution of the present compound with a 10-fold concentration (DMSO concentration: 1%). To the plate where cells were plated was added the present compound at 5 µL/well and the plate was incubated in a CO2 incubator with 5% CO2, 95% Air at 37° C. for 30 minutes. For a control and a blank, the assay medium containing 1% DMSO was added at 5 µL/well in place of the solution of the present compound. Subsequently the assay medium containing NGF (Mouse 2.5s, Natural, Invitrogen) was added to the plate at 5 µL/well (final concentration of NGF: 50 ng/ml) and the plate was incubated in a CO2 incubator with 5% CO2, 95% Air at 37° C. for 5 hours. For the blank group, the assay medium was added in place of NGF at 5 µL/well. A reporter assay detection reagent ([…]) was added to the plate which was then incubated in the dark at room temperature for 120 minutes. The reporter assay detection reagent was prepared from LiveBLAzer™-FRET B/G Loading Kit (Invitrogen). On the Analyst GT (Molecular Devices Japan, K.K.) the wells were irradiated with excitation light at 405 nm and the fluorescence intensities at 460 nm and 530 nm were measured. The time resolved fluorescence resonance energy transfer (TR-FRET) ratio of each well was calculated according to the following Equation 1: TR-FRET ratio=(A460x−A460F)/(A530x−A530F) [Eq. 1]
A460x: the fluorescence intensity at 460 nm of the present compound, control or blank;
A460F: the fluorescence intensity at 460 nm of the Cell-free;
A530x: the fluorescence intensity at 530 nm of the present compound, control or blank; and
A530x: the fluorescence intensity at 530 nm of the Cell-free.
The TR-FRET inhibition rate (%) of the present compound was calculated according to the following Equation 2: Inhibition rate (%)={1−(AX−AB)/(AC−AB)}×100 [Eq. 2]
wherein AX: the TR-FRET ratio when the present compound is added;
AB: the TR-FRET of the blank; and
AC: the TR-FRET of the control.
The IC50 value by the present compound was calculated from the inhibition curve based on the inhibition rate of the present compound at respective concentrations.
In general terms: TR-FRET usually uses a lanthanide donor and a delayed reading to cut background.

Assay [1] concerns NGF-induced vascular hyper permeability. As to the kind of experiment: Inhibition of rat NGF-induced vascular hyper permeability. It is filed as in vivo. The conditions noted are these: po, 1 mg/kg orally, read-out: Inhibition rate of vascular hyper permeability (%) (time after administration (h)). The method, then:
TrkA-inhibiting activity of the present compound was evaluted in vivo. The present compound dissolved in a medium was orally administered (adminstered volume: 5 mL/kg) to male CD(SD)IGS rats (7- to 9-week old, Charles River laboratories Japan, Inc.) shaved on the back. A medium was orally administered (adminstered volume: 5 mL/kg) to the control and normal groups. After 6, 12 or 14 hours of administration, 3 μg/mL of a NGF (Mouse 2.5s, Natural, Invitrogen) solution prepared in 0.1% BSA (Sigma-Aldrich)-containing saline was intracutaneously administered (dose; 50 μL/site) at 3 sites on the back of animals under halothane anesthesia. For the normal group, 0.1% BSA-containing saline was intracutaneously administered (dose; […]) at 3 sites on the back. Immediately after intracutaneous administration, 1% Evans Blue (Tokyo Chemical Industriy Co., Ltd.) was administered intravenously from tail (adminstered volume: 3 mL/kg). After 10 minutes of administration, the animals were sacrificed by bleeding due to incision of the abdominal aorta. The sites of intracutaneous administration on the back (3 sites) were excised and the skin samples were respectively transferred to the wells in a 48-well plate (Asahi Glass Co., Ltd.). Formamide (0.8 mL/well) was added to the plate and the plate was sealed and incubated overnight at 60° C. The formamide extraction solution (200 μL) was transferred to a 96-well plate and the absorbance (wavelength: 620 nm) of Evans Blue extracted in formamide was measured on an absorbance microplate reader (SpectraMAX 190, Molecular Devices Japan, K.K.). Standard samples of Evans Blue dissolved in formamide (0, 0.78, 1.56, 3.13, 6.25, 12.5, 25 and 50 µg/mL) were measured at the same time for the absorance (wavelength: 620 nm) to generate a calibration curve. Based on the calibration curve and the absorbances of samples, the concentrations of Evans Blue in the sample was calculated. The concentrations of Evans Blue for three skin samples collected from one aminal were averaged to obtain the vale for the animal. The rate of inhibition for rat NGF-induced vascular hyper permeability of the present compound was calculated according to the following Equation: Inhibition rate (%)={1−(AX−AN)/(AC−AN)}×100 [Eq. 3]
wherein AX: the concentration of Evans Blue of the test compound (an average value of 3 samples from one animal);
AN: the concentration of Evans Blue of the normal group (an average value of 3 samples from one animal);
AC: the concentration of Evans Blue of the control group (an average value of 3 samples from one animal).

Read-outs that look alike come from different tables or passages of the source.

Sequence of human TrkA (P04629 33-796): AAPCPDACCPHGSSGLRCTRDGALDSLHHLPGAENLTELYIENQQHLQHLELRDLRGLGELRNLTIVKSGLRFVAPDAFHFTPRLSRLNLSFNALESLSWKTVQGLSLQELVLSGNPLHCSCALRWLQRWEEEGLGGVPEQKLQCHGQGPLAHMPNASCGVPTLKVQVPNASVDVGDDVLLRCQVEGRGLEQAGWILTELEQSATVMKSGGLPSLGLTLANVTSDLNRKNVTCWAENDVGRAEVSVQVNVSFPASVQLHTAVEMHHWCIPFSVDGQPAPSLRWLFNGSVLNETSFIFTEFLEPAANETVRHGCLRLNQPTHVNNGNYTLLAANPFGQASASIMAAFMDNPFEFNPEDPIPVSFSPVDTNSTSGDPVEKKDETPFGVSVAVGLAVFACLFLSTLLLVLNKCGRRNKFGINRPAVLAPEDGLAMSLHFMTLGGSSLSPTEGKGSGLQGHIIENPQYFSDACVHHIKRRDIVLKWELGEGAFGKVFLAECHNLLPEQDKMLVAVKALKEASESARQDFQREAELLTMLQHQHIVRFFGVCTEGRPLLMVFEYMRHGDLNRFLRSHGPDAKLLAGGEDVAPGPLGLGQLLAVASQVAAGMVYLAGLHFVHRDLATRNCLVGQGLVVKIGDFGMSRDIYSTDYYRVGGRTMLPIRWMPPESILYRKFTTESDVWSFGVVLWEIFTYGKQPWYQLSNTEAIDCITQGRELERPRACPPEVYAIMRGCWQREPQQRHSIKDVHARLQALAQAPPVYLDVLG

Turning to `Nc1ncc(Cl)cc1-c1ccc(Oc2ncc(NC(=O)Nc3cc(C(F)(F)F)ccc3-n3cccn3)cn2)cc1` [Example 7, 1-(2-(1H-pyrazol-1-yl)-5-(trifluoromethyl)phenyl)-3-(2-(4-(2-amino-5-chloropyridin-3-yl)phenoxy)pyrimidin-5-yl)urea], at human TrkA, the IC50 worked out at 0.001 µM. The inhibition in vivo at 1 mg/kg in assay [1] (14 h after administration) worked out at 97%.
Consider `Cc1cn(-c2ccc(C(F)(F)F)cc2NC(=O)Nc2cnc(Oc3ccc(-c4cc(Cl)cnc4N)cc3)nc2)nn1` [Example 8-1, 1-(2-(4-(2-amino-5-chloropyridin-3-yl)phenoxy)pyrimidin-5-yl)-3-(2-(4-methyl-1H-1,2,3-triazol-1-yl)-5-(trifluoromethyl)phenyl)urea], for which the IC50 on human TrkA was found to be 0.001 µM. In addition, the inhibition in vivo at 1 mg/kg in assay [1] (14 h after administration) was 94%.
The compound `Nc1ncc(Cl)cc1-c1ccc(Oc2ncc(NC(=O)Nc3cc(C(F)(F)F)ccc3-n3ccc(C(F)(F)F)n3)cn2)cc1` [Example 8-2, 1-(2-(4-(2-amino-5-chloropyridin-3-yl)phenoxy)pyrimidin-5-yl)-3-(5-(trifluoromethyl)-2-(3-(trifluoromethyl)-1H-pyrazol-1-yl)phenyl)urea] showed an IC50 at human TrkA of 0.002 µM. Besides, the inhibition in vivo at 1 mg/kg in assay [1] (14 h after administration) is 100%.
The corresponding values for `Nc1ncc(Cl)cc1-c1ccc(Oc2ncc(NC(=O)Nc3cc(C(F)(F)F)ccc3Cl)cn2)cc1` [Example 8-4, 1-(2-(4-(2-amino-5-chloropyridin-3-yl)phenoxy)pyrimidin-5-yl)-3-(2-chloro-5-(trifluoromethyl)phenyl)urea] are 0.001 µM and 96%.
For the compound `Nc1ncc(Cl)cc1-c1ccc(Oc2ccc(NC(=O)Nc3cc(C(F)(F)F)ccc3-n3cccn3)cn2)cc1` [Example 9-1], at human TrkA, the IC50 amounted to 0.003 µM. Moreover, the inhibition in vivo at 1 mg/kg in assay [1] (14 h after administration) amounted to 86%.
For the compound `Nc1ncc(Cl)cc1-c1ccc(Oc2ccc(NC(=O)Nc3cc(C(F)(F)F)ccc3-n3ccnn3)cn2)cc1` [Example 9-2], the IC50 on human TrkA turned out to be 0.001 µM. In addition, in assay [1] (14 h after administration), the inhibition in vivo at 1 mg/kg turned out to be 100%.
With `Nc1ncc(Cl)cc1-c1ccc(Oc2ccc(NC(=O)Nc3cc(C(F)(F)F)ccc3-c3cccnc3)cn2)cc1` [Example 11, 1-(6-(4-(2-amino-5-chloropyridin-3-yl)phenoxy)pyridin-3-yl)-3-(2-(pyridin-3-yl)-5-(trifluoromethyl)phenyl)urea], 0.001 µM corresponded to half-maximal inhibition against human TrkA (IC50). Besides, the inhibition in vivo at 1 mg/kg in assay [1] (14 h after administration) is 100%.
`Cn1nccc1-c1ccc(C(F)(F)F)cc1NC(=O)Nc1cnc(Oc2ccc(-c3cc(Cl)cnc3N)cc2)nc1` [Example 13-1, 1-(2-(4-(2-amino-5-chloropyridin-3-yl)phenoxy)pyrimidin-5-yl)-3-(2-(1-methyl-1H-pyrazol-5-yl)-5-(trifluoromethyl)phenyl)urea] displayed a 50% inhibitory concentration (IC50) on human TrkA of 0.002 µM. The inhibition in vivo at 1 mg/kg in assay [1] (14 h after administration) is 100%.
At human TrkA, `Nc1ncc(F)cc1-c1ccc(Oc2ncc(NC(=O)Nc3cc(C(F)(F)F)ccc3-n3ccnn3)cn2)cc1` [Example 14-5, 1-(2-(1H-1,2,3-triazol-1-yl)-5-(trifluoromethyl)phenyl)-3-(2-(4-(2-amino-5-fluoropyridin-3-yl)phenoxy)pyrimidin-5-yl)urea] yielded an IC50 of 0.001 µM. In assay [1] (14 h after administration), the inhibition in vivo at 1 mg/kg amounted to 93%.
Compound `Nc1ncc(F)cc1-c1ccc(Oc2ncc(NC(=O)Nc3cc(C(F)(F)F)ccc3-c3cccnc3)cn2)cc1` [Example 14-6, 1-(2-(4-(2-amino-5-fluoropyridin-3-yl)phenoxy)pyrimidin-5-yl)-3-(2-(pyridin-3-yl)-5-(trifluoromethyl)phenyl)urea] showed an IC50 on human TrkA of 0.001 µM. The inhibition in vivo at 1 mg/kg in assay [1] (12 h after administration) was determined as 78%.
For the compound `Nc1ncc(Cl)cc1-c1ccc(Oc2ncc(NC(=O)Nc3ccc(C(F)(F)F)cc3-n3cccn3)cn2)cc1` [Example 15-4, 1-(2-(1H-pyrazol-1-yl)-4-(trifluoromethyl)phenyl)-3-(2-(4-(2-amino-5-chloropyridin-3-yl)phenoxy)pyrimidin-5-yl)urea], at human TrkA, the IC50 was 0.001 µM. Besides, the inhibition in vivo at 1 mg/kg in assay [1] (14 h after administration) stood at 100%.
Compound `Nc1ncc(Cl)cc1-c1ccc(Oc2ncc(NC(=O)Nc3ccc(C(F)(F)F)cc3F)cn2)cc1` [Example 15-5, 1-(2-(4-(2-amino-5-chloropyridin-3-yl)phenoxy)pyrimidin-5-yl)-3-(2-fluoro-4-(trifluoromethyl)phenyl)urea] registered a concentration for half-maximal inhibition (IC50) against human TrkA of 0.003 µM. Moreover, the inhibition in vivo at 1 mg/kg in assay [1] (14 h after administration) is 92%.
As to `O=C(Nc1cnc(Oc2ccc(-c3cnc4ccccn34)cc2)nc1)Nc1cc(C(F)(F)F)ccc1-n1cccn1` [Example 23-3, 1-(2-(1H-pyrazol-1-yl)-5-(trifluoromethyl)phenyl)-3-(2-(4-(imidazo[1,2-a]pyridin-3-yl)phenoxy)pyrimidin-5-yl)urea], the half-inhibitory concentration (IC50) against human TrkA was found to be 0.001 µM.
At human TrkA, `O=C(Nc1cnc(Oc2ccc(-c3cnc4[nH]ccc4c3)cc2)nc1)Nc1cc(C(F)(F)F)ccc1-c1cccnc1` [Example 23-7, 1-(2-(4-(1H-pyrrolo[2,3-b]pyridin-5-yl)phenoxy)pyrimidin-5-yl)-3-(2-(pyridin-3-yl)-5-(trifluoromethyl)phenyl)urea] came in with an IC50 of 0.002 µM.
`O=C(Nc1cnc(Oc2ccc(-c3cnc4cnccn34)cc2)nc1)Nc1cc(C(F)(F)F)ccc1-c1cccnc1` [Example 23-10, 1-(2-(4-(imidazo[1,2-a]pyrazin-3-yl)phenoxy)pyrimidin-5-yl)-3-(2-(pyridin-3-yl)-5-(trifluoromethyl)phenyl)urea] had a half-inhibitory concentration (IC50) on human TrkA of 0.001 µM. Compared with the last compound, the IC50 is about 2-fold lower.
With `O=C(Nc1cnc(Oc2ccc(-c3cnn4ccccc34)cc2)nc1)Nc1cc(C(F)(F)F)ccc1-c1cccnc1` [Example 23-11, 1-(2-(4-(pyrazolo[1,5-a]pyridin-3-yl)phenoxy)pyrimidin-5-yl)-3-(2-(pyridin-3-yl)-5-(trifluoromethyl)phenyl)urea], the IC50 at human TrkA is 0.001 µM. This counts as single-digit nanomolar.
Turning to `O=C(Nc1cnc(Oc2ccc(-c3cnc4[nH]ncc4c3)cc2)nc1)Nc1cc(C(F)(F)F)ccc1-c1cccnc1` [Example 23-12, 1-(2-(4-(1H-pyrazolo[3,4-b]pyridin-5-yl)phenoxy)pyrimidin-5-yl)-3-(2-(pyridin-3-yl)-5-(trifluoromethyl)phenyl)urea], 0.001 µM corresponded to half-maximal inhibition against human TrkA (IC50).

The term IC50 denotes the midpoint of a concentration-inhibition curve. A high value points to weaker potency in that assay.
